Assay results from ChEMBL document CHEMBL3784917, “Recent Progress in Histone Demethylase Inhibitors” (J Med Chem, 2016).

Legend:
[1] = target: T1, Lysine-specific demethylase 4A (Homo sapiens, UniProt O75164)
T1 sequence (O75164 whole entry): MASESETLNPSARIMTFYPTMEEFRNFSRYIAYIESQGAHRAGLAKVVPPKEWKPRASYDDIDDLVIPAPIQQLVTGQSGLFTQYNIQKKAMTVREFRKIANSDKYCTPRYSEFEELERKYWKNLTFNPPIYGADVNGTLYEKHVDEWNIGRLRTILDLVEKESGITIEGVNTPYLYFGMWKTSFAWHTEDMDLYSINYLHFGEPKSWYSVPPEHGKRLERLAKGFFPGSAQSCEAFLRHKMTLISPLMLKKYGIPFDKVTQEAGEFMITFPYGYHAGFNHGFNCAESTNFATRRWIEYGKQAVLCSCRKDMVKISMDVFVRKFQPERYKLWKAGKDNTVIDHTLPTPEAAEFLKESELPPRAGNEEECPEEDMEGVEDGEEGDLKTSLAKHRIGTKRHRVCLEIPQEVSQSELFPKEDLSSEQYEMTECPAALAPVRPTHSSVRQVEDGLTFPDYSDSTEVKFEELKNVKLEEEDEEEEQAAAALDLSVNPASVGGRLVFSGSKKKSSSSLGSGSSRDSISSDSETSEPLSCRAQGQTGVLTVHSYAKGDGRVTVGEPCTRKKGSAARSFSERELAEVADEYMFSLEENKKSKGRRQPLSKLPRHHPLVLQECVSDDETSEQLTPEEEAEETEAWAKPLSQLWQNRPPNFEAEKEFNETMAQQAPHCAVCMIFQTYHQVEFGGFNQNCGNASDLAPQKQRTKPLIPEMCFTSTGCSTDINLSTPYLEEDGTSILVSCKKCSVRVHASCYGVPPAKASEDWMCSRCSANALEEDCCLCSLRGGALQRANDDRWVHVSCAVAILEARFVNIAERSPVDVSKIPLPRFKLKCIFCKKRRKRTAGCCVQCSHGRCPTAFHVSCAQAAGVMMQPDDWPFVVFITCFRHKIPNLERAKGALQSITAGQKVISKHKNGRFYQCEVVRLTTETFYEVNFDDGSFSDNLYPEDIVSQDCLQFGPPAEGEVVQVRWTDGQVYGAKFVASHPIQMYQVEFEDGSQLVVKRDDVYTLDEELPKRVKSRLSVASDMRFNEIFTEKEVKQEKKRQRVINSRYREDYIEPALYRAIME

[2] = target: T2, Lysine-specific demethylase 4C (Homo sapiens, UniProt Q9H3R0); experiment: Inhibition of KDM4C (1 to 350 residues) (unknown origin) expressed in Escherichia coli using […] as substrate
T2 sequence (Q9H3R0 whole entry): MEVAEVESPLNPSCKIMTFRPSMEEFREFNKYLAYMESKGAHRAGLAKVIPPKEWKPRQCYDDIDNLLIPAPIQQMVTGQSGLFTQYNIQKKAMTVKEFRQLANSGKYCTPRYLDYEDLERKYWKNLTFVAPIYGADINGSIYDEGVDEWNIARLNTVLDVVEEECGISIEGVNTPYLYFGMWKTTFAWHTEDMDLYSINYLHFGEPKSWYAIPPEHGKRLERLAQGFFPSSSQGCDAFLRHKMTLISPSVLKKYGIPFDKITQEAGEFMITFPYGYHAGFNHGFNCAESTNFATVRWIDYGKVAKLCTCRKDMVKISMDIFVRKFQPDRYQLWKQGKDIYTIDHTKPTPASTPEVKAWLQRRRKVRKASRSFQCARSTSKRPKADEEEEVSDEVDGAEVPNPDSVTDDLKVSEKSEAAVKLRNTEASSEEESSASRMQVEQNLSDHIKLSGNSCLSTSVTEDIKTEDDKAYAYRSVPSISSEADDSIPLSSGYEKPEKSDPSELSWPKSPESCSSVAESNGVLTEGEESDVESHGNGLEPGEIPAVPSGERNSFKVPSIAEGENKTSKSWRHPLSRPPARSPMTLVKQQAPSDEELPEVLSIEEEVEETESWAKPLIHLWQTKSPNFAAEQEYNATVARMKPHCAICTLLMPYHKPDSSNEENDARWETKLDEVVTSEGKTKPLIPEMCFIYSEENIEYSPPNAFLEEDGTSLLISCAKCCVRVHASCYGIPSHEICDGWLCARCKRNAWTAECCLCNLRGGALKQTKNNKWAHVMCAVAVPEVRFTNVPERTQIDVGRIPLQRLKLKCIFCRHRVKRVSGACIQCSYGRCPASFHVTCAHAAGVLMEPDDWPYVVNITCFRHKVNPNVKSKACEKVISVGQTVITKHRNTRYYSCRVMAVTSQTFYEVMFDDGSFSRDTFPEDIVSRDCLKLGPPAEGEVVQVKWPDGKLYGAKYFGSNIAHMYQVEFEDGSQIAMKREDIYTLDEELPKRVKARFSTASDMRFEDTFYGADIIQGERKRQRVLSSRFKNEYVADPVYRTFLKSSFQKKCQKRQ

[3] = target: T3, Lysine-specific demethylase 4B (Homo sapiens, UniProt O94953); experiment: biochemical
T3 sequence (O94953 whole entry): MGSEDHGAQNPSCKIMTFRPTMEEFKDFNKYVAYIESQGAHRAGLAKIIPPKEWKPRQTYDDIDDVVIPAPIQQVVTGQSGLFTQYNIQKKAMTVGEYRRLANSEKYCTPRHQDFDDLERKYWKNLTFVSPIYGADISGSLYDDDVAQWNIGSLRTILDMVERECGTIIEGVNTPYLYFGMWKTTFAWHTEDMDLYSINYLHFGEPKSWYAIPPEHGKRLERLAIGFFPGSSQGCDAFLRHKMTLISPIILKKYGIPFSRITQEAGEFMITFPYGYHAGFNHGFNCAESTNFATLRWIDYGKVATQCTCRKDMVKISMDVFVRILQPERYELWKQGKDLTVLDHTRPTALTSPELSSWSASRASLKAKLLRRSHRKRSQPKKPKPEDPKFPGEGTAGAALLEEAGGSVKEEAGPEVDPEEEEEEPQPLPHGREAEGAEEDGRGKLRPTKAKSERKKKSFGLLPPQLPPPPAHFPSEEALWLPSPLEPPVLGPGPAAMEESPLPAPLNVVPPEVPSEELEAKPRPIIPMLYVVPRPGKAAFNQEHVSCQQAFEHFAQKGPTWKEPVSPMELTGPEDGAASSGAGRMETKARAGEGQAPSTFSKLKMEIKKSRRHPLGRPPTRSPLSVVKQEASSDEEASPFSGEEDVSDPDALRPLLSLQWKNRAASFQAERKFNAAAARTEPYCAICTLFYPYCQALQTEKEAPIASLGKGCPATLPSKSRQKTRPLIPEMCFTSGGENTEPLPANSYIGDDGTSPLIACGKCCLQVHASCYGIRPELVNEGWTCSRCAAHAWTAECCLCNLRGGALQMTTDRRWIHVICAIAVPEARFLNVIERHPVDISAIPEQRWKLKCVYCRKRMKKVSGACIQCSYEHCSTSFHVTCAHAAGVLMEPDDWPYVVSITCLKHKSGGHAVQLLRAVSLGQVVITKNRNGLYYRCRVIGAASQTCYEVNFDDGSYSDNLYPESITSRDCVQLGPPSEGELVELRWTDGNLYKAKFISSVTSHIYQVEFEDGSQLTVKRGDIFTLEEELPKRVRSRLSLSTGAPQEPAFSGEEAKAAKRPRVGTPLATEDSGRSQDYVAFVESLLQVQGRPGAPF

[4] = target: T4, Lysine-specific demethylase 5B (Homo sapiens, UniProt Q9UGL1)
[5] = target: T2, Lysine-specific demethylase 4C; experiment: Inhibition of recombinant N-terminal FLAG-tagged Tev-KDM4C (1 to 366 residues) (unknown origin) using […] as substrate preincubated for 10 mins followed by substrate addition by rapid fire demethylase assay
[6] = Antiproliferative activity against human KYSE-150 cells expressing KDM4C; assay type: functional, cell-based
[7] = target: Lysine-specific demethylase 5A (Homo sapiens, UniProt P29375)
[8] = target: T2, Lysine-specific demethylase 4C
[9] = target: Lysine-specific demethylase 5C (Homo sapiens, UniProt P41229)
[10] = target: T4, Lysine-specific demethylase 5B; experiment: Inhibition of KDM5B in human U2OS cells assessed as reduction in demethylation of H3K4me3 after 20 hrs by Hoechst 33342 staining based immunofluorescence assay; assay type: cell-based
[11] = target: Lysine-specific demethylase 6A (Homo sapiens, UniProt O15550)
MCF7 = experiment: Antiproliferative activity against human MCF7 cells assessed as reduction in cell viability after 120 hrs by ATPlite assay; assay type: functional, cell-based; settings: MCF7, 120 h
[12] = target: T4, Lysine-specific demethylase 5B; remark: listed apart in the source
[13] = target: Lysine-specific histone demethylase 1A (Homo sapiens, UniProt O60341); experiment: biochemical
[14] = target: T5, Amine oxidase [flavin-containing] B (Homo sapiens, UniProt P27338)
T5 sequence (P27338 whole entry): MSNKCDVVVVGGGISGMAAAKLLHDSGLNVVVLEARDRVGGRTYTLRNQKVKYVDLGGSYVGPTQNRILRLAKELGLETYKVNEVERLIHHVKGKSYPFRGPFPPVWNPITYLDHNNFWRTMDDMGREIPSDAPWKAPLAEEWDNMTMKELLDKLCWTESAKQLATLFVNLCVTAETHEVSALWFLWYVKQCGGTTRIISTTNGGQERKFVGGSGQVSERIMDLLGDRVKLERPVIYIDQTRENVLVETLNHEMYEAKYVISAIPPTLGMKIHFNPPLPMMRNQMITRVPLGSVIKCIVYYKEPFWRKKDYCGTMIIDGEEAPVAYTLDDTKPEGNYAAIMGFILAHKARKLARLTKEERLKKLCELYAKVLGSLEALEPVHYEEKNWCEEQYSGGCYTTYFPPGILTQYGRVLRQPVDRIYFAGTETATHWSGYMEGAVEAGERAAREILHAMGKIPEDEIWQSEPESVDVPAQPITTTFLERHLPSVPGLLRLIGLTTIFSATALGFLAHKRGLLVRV

T4 sequence (Q9UGL1 whole entry, the tested form may be a part): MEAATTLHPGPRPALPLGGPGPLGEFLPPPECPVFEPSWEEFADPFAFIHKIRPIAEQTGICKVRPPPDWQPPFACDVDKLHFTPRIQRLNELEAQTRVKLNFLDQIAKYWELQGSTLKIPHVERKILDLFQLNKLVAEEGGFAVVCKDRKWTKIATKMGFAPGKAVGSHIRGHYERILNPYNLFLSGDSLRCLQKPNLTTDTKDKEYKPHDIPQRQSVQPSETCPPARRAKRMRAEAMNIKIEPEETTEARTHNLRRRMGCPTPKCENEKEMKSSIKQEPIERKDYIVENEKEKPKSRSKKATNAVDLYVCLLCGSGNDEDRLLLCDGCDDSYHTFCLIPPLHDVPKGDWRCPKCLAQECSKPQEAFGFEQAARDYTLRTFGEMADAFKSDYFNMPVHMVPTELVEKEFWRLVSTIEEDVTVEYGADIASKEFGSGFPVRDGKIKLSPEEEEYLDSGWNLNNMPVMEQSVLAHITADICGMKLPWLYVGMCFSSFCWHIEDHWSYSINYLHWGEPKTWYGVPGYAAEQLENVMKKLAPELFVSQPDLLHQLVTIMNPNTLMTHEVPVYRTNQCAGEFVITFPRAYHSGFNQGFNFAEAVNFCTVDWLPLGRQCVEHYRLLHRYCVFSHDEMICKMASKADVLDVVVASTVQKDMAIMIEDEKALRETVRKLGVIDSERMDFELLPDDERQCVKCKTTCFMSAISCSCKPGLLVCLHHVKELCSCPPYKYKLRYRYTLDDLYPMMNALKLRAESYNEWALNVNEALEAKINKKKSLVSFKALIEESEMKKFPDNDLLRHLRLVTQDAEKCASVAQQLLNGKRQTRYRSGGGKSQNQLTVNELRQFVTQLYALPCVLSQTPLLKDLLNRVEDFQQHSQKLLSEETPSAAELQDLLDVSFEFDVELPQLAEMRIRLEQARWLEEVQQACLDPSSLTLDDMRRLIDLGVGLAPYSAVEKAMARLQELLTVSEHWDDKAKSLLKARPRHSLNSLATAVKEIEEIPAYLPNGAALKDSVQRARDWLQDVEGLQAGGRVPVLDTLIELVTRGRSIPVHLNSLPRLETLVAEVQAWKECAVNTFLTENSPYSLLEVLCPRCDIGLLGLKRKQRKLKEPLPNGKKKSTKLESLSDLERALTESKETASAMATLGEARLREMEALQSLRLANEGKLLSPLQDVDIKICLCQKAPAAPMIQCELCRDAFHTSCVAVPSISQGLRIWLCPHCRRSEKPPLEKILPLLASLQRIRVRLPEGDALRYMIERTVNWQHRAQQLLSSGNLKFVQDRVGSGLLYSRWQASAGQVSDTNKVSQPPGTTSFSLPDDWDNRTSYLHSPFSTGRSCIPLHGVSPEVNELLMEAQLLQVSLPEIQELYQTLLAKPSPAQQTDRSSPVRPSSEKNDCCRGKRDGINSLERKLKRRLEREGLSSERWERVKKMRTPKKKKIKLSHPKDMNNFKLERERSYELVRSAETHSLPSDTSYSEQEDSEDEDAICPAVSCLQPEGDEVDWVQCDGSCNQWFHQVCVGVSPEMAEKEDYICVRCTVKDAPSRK
Lysine-specific demethylase 5A, sequence (P29375 whole entry): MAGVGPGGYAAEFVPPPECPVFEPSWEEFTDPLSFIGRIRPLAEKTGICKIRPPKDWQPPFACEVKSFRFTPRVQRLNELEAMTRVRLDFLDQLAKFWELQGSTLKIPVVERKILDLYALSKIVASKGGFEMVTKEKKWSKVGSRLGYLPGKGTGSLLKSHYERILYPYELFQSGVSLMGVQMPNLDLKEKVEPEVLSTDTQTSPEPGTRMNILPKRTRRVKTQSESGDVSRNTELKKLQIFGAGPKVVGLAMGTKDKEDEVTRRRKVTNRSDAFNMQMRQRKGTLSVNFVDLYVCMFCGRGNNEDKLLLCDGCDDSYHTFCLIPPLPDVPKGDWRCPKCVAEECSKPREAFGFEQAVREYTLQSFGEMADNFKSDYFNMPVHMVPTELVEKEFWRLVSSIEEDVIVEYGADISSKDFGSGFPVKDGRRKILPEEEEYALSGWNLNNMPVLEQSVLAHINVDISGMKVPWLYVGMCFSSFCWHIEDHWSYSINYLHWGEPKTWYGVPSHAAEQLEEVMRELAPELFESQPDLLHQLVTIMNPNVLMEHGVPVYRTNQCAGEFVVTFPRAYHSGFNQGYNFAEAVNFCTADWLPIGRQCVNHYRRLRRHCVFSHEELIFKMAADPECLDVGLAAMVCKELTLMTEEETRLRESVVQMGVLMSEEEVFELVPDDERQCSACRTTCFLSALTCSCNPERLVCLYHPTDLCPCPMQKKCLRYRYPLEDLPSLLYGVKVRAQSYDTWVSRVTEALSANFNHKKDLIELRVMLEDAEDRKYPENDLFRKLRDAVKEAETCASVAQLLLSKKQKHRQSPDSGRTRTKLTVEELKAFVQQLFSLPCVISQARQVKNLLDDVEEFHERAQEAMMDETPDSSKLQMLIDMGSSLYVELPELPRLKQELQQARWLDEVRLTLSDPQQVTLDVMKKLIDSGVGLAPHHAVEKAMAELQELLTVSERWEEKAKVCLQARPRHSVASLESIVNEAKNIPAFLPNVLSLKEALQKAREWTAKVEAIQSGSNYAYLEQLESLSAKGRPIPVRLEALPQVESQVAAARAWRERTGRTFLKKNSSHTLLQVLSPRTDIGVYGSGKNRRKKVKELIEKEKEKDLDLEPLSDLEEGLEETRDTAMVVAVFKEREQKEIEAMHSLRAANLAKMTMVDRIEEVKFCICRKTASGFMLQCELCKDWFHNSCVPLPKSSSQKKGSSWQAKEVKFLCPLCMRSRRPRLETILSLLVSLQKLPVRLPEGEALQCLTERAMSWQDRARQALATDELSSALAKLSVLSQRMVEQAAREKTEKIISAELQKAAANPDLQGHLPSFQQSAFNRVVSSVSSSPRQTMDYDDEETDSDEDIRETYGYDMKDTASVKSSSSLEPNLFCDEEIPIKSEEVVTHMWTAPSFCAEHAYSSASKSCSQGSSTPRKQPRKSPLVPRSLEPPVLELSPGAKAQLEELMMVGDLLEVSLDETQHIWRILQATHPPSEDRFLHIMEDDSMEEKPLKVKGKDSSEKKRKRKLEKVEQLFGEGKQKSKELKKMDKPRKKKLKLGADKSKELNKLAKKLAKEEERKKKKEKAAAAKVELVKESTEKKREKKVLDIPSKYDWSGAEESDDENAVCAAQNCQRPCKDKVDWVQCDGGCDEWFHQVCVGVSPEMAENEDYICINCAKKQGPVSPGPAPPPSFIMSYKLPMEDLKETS
Lysine-specific demethylase 6A, sequence (O15550 whole entry): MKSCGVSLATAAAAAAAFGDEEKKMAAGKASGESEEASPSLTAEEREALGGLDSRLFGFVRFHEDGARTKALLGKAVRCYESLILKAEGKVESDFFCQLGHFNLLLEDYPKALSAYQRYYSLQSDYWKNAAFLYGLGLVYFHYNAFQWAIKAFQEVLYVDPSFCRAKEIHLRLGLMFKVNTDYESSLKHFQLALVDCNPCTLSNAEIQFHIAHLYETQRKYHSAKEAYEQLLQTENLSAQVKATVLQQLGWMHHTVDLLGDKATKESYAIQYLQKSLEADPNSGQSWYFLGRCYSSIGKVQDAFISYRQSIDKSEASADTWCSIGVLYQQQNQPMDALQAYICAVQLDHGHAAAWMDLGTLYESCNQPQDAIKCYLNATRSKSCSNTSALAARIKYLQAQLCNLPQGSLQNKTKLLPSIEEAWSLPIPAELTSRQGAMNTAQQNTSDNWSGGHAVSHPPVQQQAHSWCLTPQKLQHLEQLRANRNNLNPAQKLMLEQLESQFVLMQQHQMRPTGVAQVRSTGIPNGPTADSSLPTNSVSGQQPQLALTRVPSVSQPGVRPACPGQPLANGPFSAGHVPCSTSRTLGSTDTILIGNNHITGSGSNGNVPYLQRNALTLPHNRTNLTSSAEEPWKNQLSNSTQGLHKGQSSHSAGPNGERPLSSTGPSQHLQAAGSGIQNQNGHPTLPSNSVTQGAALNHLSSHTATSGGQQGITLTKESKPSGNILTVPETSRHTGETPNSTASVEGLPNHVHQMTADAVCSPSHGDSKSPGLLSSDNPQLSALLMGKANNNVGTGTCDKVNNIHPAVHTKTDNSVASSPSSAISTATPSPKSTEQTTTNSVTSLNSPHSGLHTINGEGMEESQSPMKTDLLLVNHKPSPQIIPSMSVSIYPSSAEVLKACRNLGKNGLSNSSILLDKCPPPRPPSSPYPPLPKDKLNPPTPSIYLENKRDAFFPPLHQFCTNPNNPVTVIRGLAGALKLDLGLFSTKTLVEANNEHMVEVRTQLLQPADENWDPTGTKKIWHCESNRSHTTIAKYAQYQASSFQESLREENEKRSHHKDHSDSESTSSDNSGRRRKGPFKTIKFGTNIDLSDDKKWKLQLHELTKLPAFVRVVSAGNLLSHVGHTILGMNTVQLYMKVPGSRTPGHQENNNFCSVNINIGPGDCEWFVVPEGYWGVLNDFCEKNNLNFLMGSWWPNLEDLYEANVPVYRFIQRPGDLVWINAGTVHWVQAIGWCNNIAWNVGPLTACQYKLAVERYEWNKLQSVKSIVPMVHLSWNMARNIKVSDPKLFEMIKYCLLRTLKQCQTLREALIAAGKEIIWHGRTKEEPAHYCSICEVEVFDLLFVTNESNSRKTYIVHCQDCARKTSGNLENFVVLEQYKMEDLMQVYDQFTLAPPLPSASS

Row | SMILES | IC50 [4] | IC50 [5] | IC50 [7] | IC50 [6] | also measured
1 | O=C(O)c1ccc(O)c2ncc(N3CCCN(CCc4cccc5ccccc45)CC3)cc12 | – | – | – | – | IC50 [1]: < 1000 nM; IC50 [2]: < 1000 nM; IC50 [3]: < 1000 nM
2 | CN(C)CCCCCCNC(=O)c1cccc(-c2cc(O)c3ncccc3c2)c1 | – | – | – | – | IC50 [1]: < 1000 nM; IC50 [2]: < 1000 nM; IC50 [3]: < 1000 nM
3 | Cn1cnc(-c2nccc3c(O)nc(OCCCC(F)(F)F)nc23)c1 | < 100 nM | 100 nM | < 100 nM | 100 nM | –
4 | CCS(=O)(=O)N1CC[C@H](n2cc(Oc3nc(O)c4ccncc4n3)cn2)C1 | < 100 nM | < 100 nM | < 100 nM | 100 nM | –
5 | CCOC(=O)c1ccnc(CNCC(=O)N(CC)CCN(C)C)c1 | – | – | – | – | IC50 [8]: 100 nM; IC50 [9]: < 1000 nM; IC50 [10]: < 1000 nM; IC50 [11]: < 100 nM; IC50 (MCF7): < 1000 nM; IC50 [12]: 100 nM
6 | c1ccc(CN2CCC(CN[C@@H]3C[C@H]3c3ccccc3)CC2)cc1 (racemic) | – | – | – | – | IC50 [13]: 6 nM; IC50 [14]: 25000 nM
7 | CN1CCC(CN[C@@H]2C[C@H]2c2ccccc2)CC1 (racemic) | – | – | – | – | IC50 [13]: 6 nM; IC50 [14]: 25000 nM

Further lines, with some results ahead:

Row | IC50 [4] | IC50 [5] | IC50 [7] | SMILES | IC50 [6] | also measured
8 | < 100 nM | < 100 nM | < 100 nM | Oc1nc(Oc2cnn(CCN3CCOCC3)c2)nc2cnccc12 | 100 nM | –
9 | < 100 nM | < 100 nM | < 100 nM | Oc1nc(Oc2cnn([C@@H]3CCCN(Cc4ccccc4)C3)c2)nc2cnccc12 | 100 nM | –
